These compounds were tested against T1, EGFR (Homo sapiens, UniProt P00533) (assay: EGFR ELISA assay (in vitro kinase activity, EGFR captured from A431 cell lysate)).
T1 construct: Add 7 ug A431 cell lysate per well (EGFR source); endogenous in cells; host or cells: A431
Assay type: biochemical
Set-up: concentration or dose not given beside the values
Method in brief: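 EGFR from A431 lysate was captured on plates coated with anti-EGFR antibody. Compounds were added 30 min before a 5 min phosphorylation with 3 µM ATP/5 mM MnCl2, which was stopped with 20 mM EDTA. Phosphotyrosine was detected with rabbit anti-phosphotyrosine, then a peroxidase-conjugated secondary and ABTS/H2O2, read at 410 nm.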

T1 sequence (P00533 25-1210): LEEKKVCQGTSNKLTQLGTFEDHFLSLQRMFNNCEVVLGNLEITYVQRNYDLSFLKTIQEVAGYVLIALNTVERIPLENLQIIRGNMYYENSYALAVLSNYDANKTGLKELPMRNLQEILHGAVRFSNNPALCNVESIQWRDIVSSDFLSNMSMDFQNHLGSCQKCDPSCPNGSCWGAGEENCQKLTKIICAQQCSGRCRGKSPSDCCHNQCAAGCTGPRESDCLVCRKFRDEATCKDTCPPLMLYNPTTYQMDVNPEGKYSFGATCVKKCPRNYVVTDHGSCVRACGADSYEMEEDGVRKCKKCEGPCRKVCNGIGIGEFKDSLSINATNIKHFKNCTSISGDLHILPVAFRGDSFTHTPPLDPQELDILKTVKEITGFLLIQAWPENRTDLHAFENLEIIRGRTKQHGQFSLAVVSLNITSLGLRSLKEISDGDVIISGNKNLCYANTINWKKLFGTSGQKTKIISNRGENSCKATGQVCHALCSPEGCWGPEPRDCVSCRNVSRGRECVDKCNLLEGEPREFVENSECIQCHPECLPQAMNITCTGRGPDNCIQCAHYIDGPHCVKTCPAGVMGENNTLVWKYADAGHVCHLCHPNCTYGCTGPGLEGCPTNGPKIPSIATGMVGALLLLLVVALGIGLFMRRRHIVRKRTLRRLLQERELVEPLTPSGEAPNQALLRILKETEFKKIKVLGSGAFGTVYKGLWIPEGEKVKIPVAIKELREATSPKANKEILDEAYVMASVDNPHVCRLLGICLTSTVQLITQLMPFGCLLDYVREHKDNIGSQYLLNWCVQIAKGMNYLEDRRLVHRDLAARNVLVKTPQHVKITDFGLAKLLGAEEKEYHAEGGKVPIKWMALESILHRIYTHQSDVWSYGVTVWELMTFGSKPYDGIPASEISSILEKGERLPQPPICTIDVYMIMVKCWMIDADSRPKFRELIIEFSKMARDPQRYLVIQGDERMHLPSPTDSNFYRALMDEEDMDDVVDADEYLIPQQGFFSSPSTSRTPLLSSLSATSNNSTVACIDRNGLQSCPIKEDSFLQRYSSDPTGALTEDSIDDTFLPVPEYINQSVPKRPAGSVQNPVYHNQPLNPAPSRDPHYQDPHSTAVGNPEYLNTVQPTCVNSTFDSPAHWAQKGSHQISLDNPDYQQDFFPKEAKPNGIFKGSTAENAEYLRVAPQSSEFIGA

Row | SMILES | Biochem EGFR %Inhibition [%]
1 | CCOc1ccccc1C=C1C(=O)Nc2c(Br)cc(Br)cc21 [10717/A02] | 24.3
2 | Cc1c(Br)ccc2c1C(=Cc1cccn1C)C(=O)N2 [10717/C04] | 14.4
3 | Cc1c(Br)ccc2c1C(=Cc1ccc(F)cc1)C(=O)N2 [10717/C05] | 13.1
4 | Cc1c(Br)ccc2c1C(=Cc1c[nH]c3ccccc13)C(=O)N2 [10717/C06] | -49.7
5 | Cc1ccc(C=C2C(=O)Nc3ccc(Br)c(C)c32)s1 [10717/C07] | 28.7
6 | Cc1c(Br)ccc2c1C(=Cc1ccc(Br)cc1)C(=O)N2 [10717/C08] | 24.3
7 | Cc1c(Br)ccc2c1C(=Cc1ccc[nH]1)C(=O)N2 [10717/C09] | 8.1
8 | COc1cccc(O)c1C=C1C(=O)Nc2ccc(Br)c(C)c21 [10717/C10] | 17.5
9 | Cc1[nH]c(C=C2C(=O)Nc3ccc(Br)c(C)c32)c(Br)c1Br [10717/C11] | 67.3
10 | CNS(=O)(=O)c1ccc2c(c1)C(=Cc1ccc(OC)c(OC)c1)C(=O)N2 [10720/D04] | -7.7
11 | CNS(=O)(=O)c1ccc2c(c1)C(=Cc1ccccc1O)C(=O)N2 [10720/D05] | -24.1
12 | CNS(=O)(=O)c1ccc2c(c1)C(=Cc1ccccc1)C(=O)N2 [10720/D06] | -35.0
13 | CNS(=O)(=O)c1ccc2c(c1)C(=Cc1ccc(SC)s1)C(=O)N2 [10720/D07] | 14.8
14 | CNS(=O)(=O)c1ccc2c(c1)C(=Cc1c(C)cc(O)cc1O)C(=O)N2 [10720/D08] | -13.3
15 | CCOc1cc(C=C2C(=O)Nc3ccc(S(=O)(=O)NC)cc32)ccc1O [10720/D09] | 2.4
16 | CNS(=O)(=O)c1ccc2c(c1)C(=Cc1cc(OC)ccc1O)C(=O)N2 [10720/D10] | -10.2
17 | CNS(=O)(=O)c1ccc2c(c1)C(=Cc1ncc[nH]1)C(=O)N2 [10720/D11] | -5.5
18 | O=C1Nc2ccc(S(=O)(=O)Nc3ccc(C(F)(F)F)cc3)cc2C1=Cc1c(F)cc(F)cc1F [10720/E02] | 25.2
19 | COc1cc(O)ccc1C=C1C(=O)Nc2ccc(S(=O)(=O)Nc3ccc(C(F)(F)F)cc3)cc21 [10720/E03] | 54.4
20 | COc1ccc(C=C2C(=O)Nc3ccc(S(=O)(=O)Nc4ccc(C(F)(F)F)cc4)cc32)cc1OC [10720/E04] | -2.7
21 | O=C1Nc2ccc(S(=O)(=O)Nc3ccc(C(F)(F)F)cc3)cc2C1=Cc1ccccc1O [10720/E05] | 40.7
22 | O=C1Nc2ccc(S(=O)(=O)Nc3ccc(C(F)(F)F)cc3)cc2C1=Cc1ccccc1 [10720/E06] | 30.1
23 | CSc1ccc(C=C2C(=O)Nc3ccc(S(=O)(=O)Nc4ccc(C(F)(F)F)cc4)cc32)s1 [10720/E07] | 55.1
24 | Cc1cc(O)cc(O)c1C=C1C(=O)Nc2ccc(S(=O)(=O)Nc3ccc(C(F)(F)F)cc3)cc21 [10720/E08] | 37.4
25 | CCOc1cc(C=C2C(=O)Nc3ccc(S(=O)(=O)Nc4ccc(C(F)(F)F)cc4)cc32)ccc1O [10720/E09] | 56.4
26 | COc1ccc(O)c(C=C2C(=O)Nc3ccc(S(=O)(=O)Nc4ccc(C(F)(F)F)cc4)cc32)c1 [10720/E10] | 49.1
27 | O=C1Nc2ccc(S(=O)(=O)Nc3ccc(C(F)(F)F)cc3)cc2C1=Cc1ncc[nH]1 [10720/E11] | -65.5

Row | SMILES | Biochem EGFR %Inhibition [%]
28 | O=C1Nc2ccc(S(=O)(=O)N3CCOCC3)cc2C1=Cc1c(F)cc(F)cc1F [10720/F02] | -19.3
29 | COc1cc(O)ccc1C=C1C(=O)Nc2ccc(S(=O)(=O)N3CCOCC3)cc21 [10720/F03] | 7.1
30 | COc1ccc(C=C2C(=O)Nc3ccc(S(=O)(=O)N4CCOCC4)cc32)cc1OC [10720/F04] | -11.7
31 | O=C1Nc2ccc(S(=O)(=O)N3CCOCC3)cc2C1=Cc1ccccc1O [10720/F05] | -14.2
32 | O=C1Nc2ccc(S(=O)(=O)N3CCOCC3)cc2C1=Cc1ccccc1 [10720/F06] | -24.3
33 | CSc1ccc(C=C2C(=O)Nc3ccc(S(=O)(=O)N4CCOCC4)cc32)s1 [10720/F07] | 35.2
34 | Cc1cc(O)cc(O)c1C=C1C(=O)Nc2ccc(S(=O)(=O)N3CCOCC3)cc21 [10720/F08] | -39.6
35 | CCOc1cc(C=C2C(=O)Nc3ccc(S(=O)(=O)N4CCOCC4)cc32)ccc1O [10720/F09] | 6.4
36 | COc1ccc(O)c(C=C2C(=O)Nc3ccc(S(=O)(=O)N4CCOCC4)cc32)c1 [10720/F10] | 6.0
37 | O=C1Nc2ccc(S(=O)(=O)N3CCOCC3)cc2C1=Cc1ncc[nH]1 [10720/F11] | -61.1
38 | O=C1Nc2ccc(CCCl)cc2C1=Cc1c(F)cc(F)cc1F [10720/G02] | -13.1
39 | COc1cc(O)ccc1C=C1C(=O)Nc2ccc(CCCl)cc21 [10720/G03] | 10.0
40 | COc1ccc(C=C2C(=O)Nc3ccc(CCCl)cc32)cc1OC [10720/G04] | -34.1
41 | O=C1Nc2ccc(CCCl)cc2C1=Cc1ccccc1O [10720/G05] | 27.0
42 | O=C1Nc2ccc(CCCl)cc2C1=Cc1ccccc1 [10720/G06] | -10.4
43 | CSc1ccc(C=C2C(=O)Nc3ccc(CCCl)cc32)s1 [10720/G07] | -8.0
44 | Cc1cc(O)cc(O)c1C=C1C(=O)Nc2ccc(CCCl)cc21 [10720/G08] | -9.5
45 | CCOc1cc(C=C2C(=O)Nc3ccc(CCCl)cc32)ccc1O [10720/G09] | -19.7
46 | COc1ccc(O)c(C=C2C(=O)Nc3ccc(CCCl)cc32)c1 [10720/G10] | 20.4
47 | O=C1Nc2ccc(CCCl)cc2C1=Cc1ncc[nH]1 [10720/G11] | -56.7
48 | Cn1c(C=C2C(=O)Nc3c(Br)cc(Br)cc32)nc2ccccc21 [10721/A02] | 17.8
49 | Cn1cc(Cl)c(C=C2C(=O)Nc3c(Br)cc(Br)cc32)n1 [10721/A03] | 25.5
50 | Cc1cc(C=C2C(=O)Nc3c(Br)cc(Br)cc32)sc1C [10721/A04] | 59.0
51 | O=C1Nc2c(Br)cc(Br)cc2C1=Cc1cc2c([nH]1)CCCC2 [10721/A05] | 41.4
52 | O=C1Nc2c(Br)cc(Br)cc2C1=Cc1cc([N+](=O)[O-])cc(CCl)c1O [10721/A06] | 32.7
53 | O=C1Nc2c(Br)cc(Br)cc2C1=Cc1ccc(Cl)s1 [10721/A07] | 35.2
54 | Cc1cc(C)c(C=C2C(=O)Nc3c(Br)cc(Br)cc32)[nH]1 [10721/A08] | 24.0

Row | SMILES | Biochem EGFR %Inhibition [%]
55 | CC(C)(C)c1cc(C=C2C(=O)Nc3c(Br)cc(Br)cc32)ccc1O [10721/A09] | 28.0
56 | CC(C)(C)c1cc(C=C2C(=O)Nc3c(Br)cc(Br)cc32)cc(Br)c1O [10721/A10] | 31.1
57 | CC(C)(C)c1cc(C=C2C(=O)Nc3c(Br)cc(Br)cc32)cc(C(C)(C)C)c1O [10721/A11] | 24.6
58 | O=C1Nc2ccc(I)cc2C1=Cc1cc2c([nH]1)CCCC2 [10721/B05] | 76.8
59 | Cc1cc(C)c(C=C2C(=O)Nc3ccc(I)cc32)[nH]1 [10721/B08] | 64.0
60 | CC(C)(C)c1cc(C=C2C(=O)Nc3ccc(I)cc32)ccc1O [10721/B09] | 38.9
61 | CC(C)(C)c1cc(C=C2C(=O)Nc3ccc(I)cc32)cc(Br)c1O [10721/B10] | 42.9
62 | CC(C)(C)c1cc(C=C2C(=O)Nc3ccc(I)cc32)cc(C(C)(C)C)c1O [10721/B11] | 34.6
63 | Cc1c(Br)ccc2c1C(=Cc1nc3ccccc3n1C)C(=O)N2 [10721/C02] | 68.3
64 | Cc1c(Br)ccc2c1C(=Cc1nn(C)cc1Cl)C(=O)N2 [10721/C03] | 64.6
65 | Cc1cc(C=C2C(=O)Nc3ccc(Br)c(C)c32)sc1C [10721/C04] | 77.7
66 | Cc1c(Br)ccc2c1C(=Cc1cc3c([nH]1)CCCC3)C(=O)N2 [10721/C05] | 68.1
67 | Cc1c(Br)ccc2c1C(=Cc1cc([N+](=O)[O-])cc(CCl)c1O)C(=O)N2 [10721/C06] | 80.2
68 | Cc1c(Br)ccc2c1C(=Cc1ccc(Cl)s1)C(=O)N2 [10721/C07] | 24.6
69 | Cc1cc(C)c(C=C2C(=O)Nc3ccc(Br)c(C)c32)[nH]1 [10721/C08] | 38.3
70 | Cc1c(Br)ccc2c1C(=Cc1ccc(O)c(C(C)(C)C)c1)C(=O)N2 [10721/C09] | 39.8
71 | Cc1c(Br)ccc2c1C(=Cc1cc(Br)c(O)c(C(C)(C)C)c1)C(=O)N2 [10721/C10] | 17.4
72 | Cc1c(Br)ccc2c1C(=Cc1cc(C(C)(C)C)c(O)c(C(C)(C)C)c1)C(=O)N2 [10721/C11] | 14.1
73 | CNS(=O)(=O)c1ccc2c(c1)C(=Cc1nc3ccccc3n1C)C(=O)N2 [10721/D02] | 21.5
74 | CNS(=O)(=O)c1ccc2c(c1)C(=Cc1nn(C)cc1Cl)C(=O)N2 [10721/D03] | 11.6
75 | CNS(=O)(=O)c1ccc2c(c1)C(=Cc1cc(C)c(C)s1)C(=O)N2 [10721/D04] | 5.0
76 | CNS(=O)(=O)c1ccc2c(c1)C(=Cc1cc3c([nH]1)CCCC3)C(=O)N2 [10721/D05] | 47.0
77 | CNS(=O)(=O)c1ccc2c(c1)C(=Cc1cc([N+](=O)[O-])cc(CCl)c1O)C(=O)N2 [10721/D06] | 44.5
78 | CNS(=O)(=O)c1ccc2c(c1)C(=Cc1ccc(Cl)s1)C(=O)N2 [10721/D07] | 23.0
79 | CNS(=O)(=O)c1ccc2c(c1)C(=Cc1[nH]c(C)cc1C)C(=O)N2 [10721/D08] | 31.7
80 | CNS(=O)(=O)c1ccc2c(c1)C(=Cc1ccc(O)c(C(C)(C)C)c1)C(=O)N2 [10721/D09] | 15.3

From EP1247803A2, “Indolinone compounds suitable for modulation of protein kinases” (Sugen, Inc., priority 1996, dated 1998)
